Laboratory results reported in publication PMC11396667, “Design, Synthesis, and Anticancer and Antibacterial Activities of Quinoline-5-Sulfonamides” (Molecules, 2024).
Converted amounts (≈) assume the structure as drawn.

How the values were obtained:
Assay type in all cases: cell-based
[1] = tested on: Staphylococcus aureus ATCC 29213; assay: MBC, agar aliquot subculture method, SA; conditions: ATCC29213, 99.9% decrease in CFU, 24 h, 37 °C
Description: (§1) The activities of the individual derivatives were expressed as minimum inhibitory concentrations (MICs) and minimum bactericidal concentrations (MBCs) and are shown in Table 3 together with the values of the antibiotics used as standards for comparison. […] MBC values of bactericidal compounds are indicated in bold in Table 3.
(§2) For the above-mentioned strains/isolates, the agar aliquot subculture method was used as a test for bactericidal agents. After the MIC value determination, the inoculum was transferred to CaMH (Oxoid) for staphylococci, and BHI (Oxoid) for enterococci medium using a multipoint inoculator. The plates were incubated in a thermostat at 37 °C for 24 h. The lowest concentration of test compound at which ≤5 colonies were obtained was then evaluated as MBC, corresponding to a 99.9% decrease in CFU relative to the original inoculum.

[2] = tested on: Enterococcus faecalis ATCC 29212; assay: MBC, agar aliquot subculture method, EF; conditions: ATCC29212, 99.9% decrease in CFU, 24 h, 37 °C
Description: as §1, §2

[3] = tested on: MDA-MB-231 (human breast adenocarcinoma) cells; assay: WST-1 cell viability assay, MDA-MB-231; conditions: Homo sapiens, MDA-MB-231; WST-1, 72 h exposure, ± SD, n = 6
Description: (§3) The synthesized compounds were tested using three cancer cell lines—human amelanotic melanoma (C-32), human breast adenocarcinoma (MDA-MB-231), and human lung adenocarcinoma (A549)—and, for comparison, normal human dermal fibroblasts (HFF-1). The WST-1 (water-soluble tetrazole salt) assay was used to evaluate the effect of the synthesized compounds on the viability of cultured cells.
(§4) Compounds were evaluated for their antiproliferative activity using three cultured cell lines: C-32 (human amelanotic melanoma, ATCC, Manassas, VA, USA), A549 (human lung adenocarcinoma, ATCC, Manassas, VA, USA), MDA-MB-231 (human breast adenocarcinoma derived from metastatic site: pleural effusion, ATCC, Manassas, VA, USA), together with HFF-1 (normal human dermal fibroblasts, ATCC, Manassas, VA, USA). The cultured cells were kept at 37 °C and 5% CO2.
(§5) Cells were seeded in 96-well plates at 5000/well in 100 μL of medium. After 24 h of incubation, the medium was replaced with a new one with the addition of the test substance. After 72 h, the following tests were performed: with crystal violet (determination of the number of adherent cells in the culture), the WST-1 test (determination of the relative number of living cells and their metabolic activity), and the LDH test (determination of the relative number of dead cells in cultures—cytotoxicity of the tested substance).
(§6) WST-1 test: The WST-1 test (Roche Diagnostics, Mannheim, Germany) allows one to determine the relative number of cells in cultures. Absorbance is directly proportional to the number of cells and their metabolic activity. The absorbance measurement is performed at λ = 450 nm (reference wave 600 nm).

[4] = tested on: methicillin-resistant S. aureus SA 3202; assay: MIC, microtitration broth method, MRSA1; conditions: Staphylococcus aureus; 24 h, 37 °C, CaMH broth
Description: Since there is a general decrease in immunity during the treatment of oncological patients, i.e., patients are more susceptible to infectious diseases, it is advantageous if anticancer agents show antimicrobial properties at the same time. Therefore, the effects of the compounds were also investigated against Gram-positive bacteria. For this purpose, the susceptible collection strains of aerobic Staphylococcus aureus ATCC 29213 and facultatively aerobic Enterococcus faecalis ATCC 29212 and resistant clinical isolates of methicillin-resistant S. aureus (MRSA) SA 3202, SA 630 carrying the mecA gene, and vancomycin-resistant isolates of E. faecalis (VRE) 342B, 368, and 725B carrying the vanA gene were selected. Thus, the selection of the studied bacterial strains was adopted following the CLSI ([…]) international reference methodologies.
The in vitro antibacterial activity of the synthesized compounds was evaluated against representatives of multidrug-resistant bacteria, […] clinical isolates of methicillin-resistant S. aureus: clinical isolates of human origin, MRSA SA 3202, and MRSA SA 630 (National Institute of Public Health, Prague, Czech Republic), carrying the mecA gene. These two clinical isolates were classified as vancomycin-susceptible (but with a higher MIC of vancomycin equal to 2 μg/mL (VA2-MRSA). Vancomycin- and methicillin-susceptible S. aureus ATCC 29213 and vancomycin-susceptible Enterococcus faecalis ATCC 29212, obtained from the American Type Culture Collection, were used as the reference and quality control strains. Three vanA gene-carrying vancomycin-resistant isolates of E. faecalis (VRE 342B, VRE 368, VRE 725B) (Department of Infectious Diseases and Microbiology, Faculty of Veterinary Medicine, University of Veterinary Sciences Brno, Czech Republic) were provided by Oravcova et al..
The minimum inhibitory concentrations (MICs) were evaluated by the microtitration broth method according to the CLSI, with some modifications. The compounds were dissolved in DMSO (Sigma, St. Louis, MO, USA) to obtain a concentration of […] and diluted in a microtitration plate in an appropriate medium, i.e., Cation-Adjusted Mueller–Hinton Broth (CaMH, Oxoid, Basingstoke, UK) for staphylococci, and Brain Heart Infusion Broth (BHI, Oxoid) for enterococci to reach the final concentration of 256–0.125 µg/mL. Microtiter plates were inoculated with test microorganisms so that the final concentration of bacterial cells was 10^5. Ampicillin, oxacillin, and ciprofloxacin (Sigma) were used as reference drugs. A drug-free control and a sterility control were included. The plates were incubated for 24 h at 37 °C for staphylococci and enterococci. […] The experiments were repeated three times.

[5] = tested on: C-32 (human amelanotic melanoma) cells; assay: WST-1 cell viability assay, C-32; conditions: Homo sapiens; WST-1, 72 h exposure, ± SD, n = 6
Description: as §3, §4, §5, §6

[6] = tested on: methicillin-resistant S. aureus SA 630; assay: MBC, agar aliquot subculture method, MRSA2; conditions: Staphylococcus aureus; 99.9% decrease in CFU, 24 h, 37 °C
Description: as §1, §2

Row | Compound | IC50 [3] [µM] | MIC [4] [µM] | IC50 [5] [µM] | MBC [1] [µM] | MBC [2] [µM] | MBC [6] [µM]
1 | C#CCN(C)S(=O)(=O)c1ccc(O)c2ncccc12 [3c, 8-Hydroxy-N-methyl-N-(prop-2-yn-1-yl)quinoline-5-sulfonamide] | 2.2 ± 0.1 | 29 (≈ 8.01 µg/mL) | 9.8 ± 0.6 | 29 (≈ 8.01 µg/mL) | > 464 | 29 (≈ 8.01 µg/mL)
2 | C#CCOc1ccc(NS(=O)(=O)c2ccc(O)c3ncccc23)cc1 [3d, 8-Hydroxy-N-[4-(prop-2-yn-1-yloxy)phenyl]quinoline-5-sulfonamide] | 45.3 ± 5.4 | 45.2 (≈ 16 µg/mL) | 10.4 ± 0.5 | 45.2 (≈ 16 µg/mL) | 362 (≈ 128 µg/mL) | 90.4 (≈ 32 µg/mL)
3 | C#CCOc1cccc(NS(=O)(=O)c2ccc(O)c3ncccc23)c1 [3e, 8-Hydroxy-N-[3-(prop-2-yn-1-yloxy)phenyl]quinoline-5-sulfonamide] | 15.2 ± 0.8 | 45.2 (≈ 16 µg/mL) | 8.6 ± 0.9 | 45.2 (≈ 16 µg/mL) | 362 (≈ 128 µg/mL) | 90.4 (≈ 32 µg/mL)
4 | C#CCOc1ccccc1NS(=O)(=O)c1ccc(O)c2ncccc12 [3f, 8-Hydroxy-N-[2-(prop-2-yn-1-yloxy)phenyl]quinoline-5-sulfonamide] | 14.7 ± 1.2 | 45.2 (≈ 16 µg/mL) | 29.6 ± 2.6 | 45.2 (≈ 16 µg/mL) | 362 (≈ 128 µg/mL) | 90.4 (≈ 32 µg/mL)

More lines, main results first:

Row | IC50 [3] [µM] | MIC [4] [µM] | IC50 [5] [µM] | Compound | MBC [1] [µM] | MBC [2] [µM] | MBC [6] [µM]
5 | 23.3 ± 1.2 | 122 (≈ 32 µg/mL) | 19.8 ± 1.1 | C#CCNS(=O)(=O)c1ccc(O)c2ncccc12 [3a, 8-Hydroxy-N-(prop-2-yn-1-yl)quinoline-5-sulfonamide] | 122 (≈ 32 µg/mL) | > 977 | 244 (≈ 64 µg/mL)
6 | 55.8 ± 1.9 | 55.2 (≈ 16 µg/mL) | 22.1 ± 1.5 | C#CC(C)(C)NS(=O)(=O)c1ccc(O)c2ncccc12 [3b, 8-Hydroxy-N-(1,1-dimethylprop-2-yn-1-yl)quinoline-5-sulfonamide] | 110 (≈ 31.9 µg/mL) | > 883 | 110 (≈ 31.9 µg/mL)
